Assay results reported in US20260317357A1, “HETEROCYCLIC COMPOUNDS AS STING AGONISTS” (LigaChem Biosciences Inc., priority 2022, published 2026).

Experiments:
[1] = Pharmacokinetics in Balb/C mouse after single IV dose; format: in vivo; conditions: 1.5 mg/kg; for AUC∞, norm / Cmax, norm: dose-normalized
Experimental: For in vivo evaluation of STING agonist compounds described herein in naïve Balb/C mouse, single doses of STING agonist compounds were given at 1.5 mg/kg intravenously into female BALB/c mice (Orientbio, South Korea) at 6-8 weeks of age. Pharmacokinetics were studied following injection of the STING agonist compounds into Balb/C mice. Plasma samples were taken at various time points and stored frozen for analysis. The plasma concentrations of the STING agonist compounds at the indicated time points were measured using a LC-MS/MS analysis method.
Briefly, 250 μL of acetonitrile (ACN) solution was added in both 50 µL of sample and 50 µL of plasma containing 10 nM Dextromethorphan (internal standard), and the solutions were mixed vigorously using a vortex mixer for 5 minutes. The samples were then spun down at 14,000 rpm, 4° C. for 5 minutes. 100 μL of supernatants were combined with 100 μL of mobile phase A (0.1% formic acid in water with 5% ACN) and mixed thoroughly. The samples were measured for the STING agonist compounds using a LC-MS/MS (Nexera LC40 (SHIMADZU) and QTRAP4500 (SCIEX)).

[2] = In vitro cell cytotoxicity in PBMCs (CellTiter-Glo); format: cell-based
Experimental: PBMCs were also purchased from […]™ (#700025.2). The cells (8.0×10^4 cells per well) were seeded in a flat-bottomed 96-well plate in RPMI 1640 medium (Gibco, #22400097) with 10% heat-inactivated FBS and 1×Antibiotic-Antimycotic (Gibco, #15240062) and rested for 24 hours at 37° C. […] After 72 hours, the cell viability was measured using CellTiter-Glo Luminescent Cell Viability Assay (Promega, #G7573) according to the manufacture's instruction. The signal was detected using an EnVision Xcite multilabel reader and data were analyzed using GraphPad Prism 8 software.
To verify the effect of the STING agonist compounds in normal cell cytotoxicity, the PBMCs were treated with the STING agonist compounds for 3 days and measured the percentage of cell death.

[3] = target: T1, hSTING-HAQ (Homo sapiens, UniProt Q86WV6, G230A/H232R/R293Q/R71H); test: STING agonist activity, THP1 Dual reporter cells expressing endogenous STING variant HAQ; format: cell-based; conditions: IRF luciferase, 24 hours
T1 construct: expressing the endogenous STING variant HAQ; host or cells: THP1 Dual
Experimental: (§1) In order to evaluate the activity of the STING agonist, reporter cells from Invivogen were used. The cell lines used in the experiment were THP1 Dual™ (InvivoGen #thpd-nfis) expressing the endogenous STING variant HAQ and THP1 Dual™ KI-hSTING-R232 (InvivoGen #thpd-r232/h232) into which the STING R232 or H232 variant gene was injected after removing the STING HAQ gene. The cell lines have a luciferase reporter gene inserted below the IFN regulatory factor (IRF) promoter, and thus the activity of the IFN regulatory factor (IRF) mechanism can be evaluated through luciferase expression.
(§2) The reporter cells were plated at 9.0×10^4 cells/100 μL per well in a 96-well plate using RPMI 1640 medium (Gibco, #22400097) supplemented with 10% heat-inactivated FBS and 1×Antibiotic-Antimycotic (Gibco, #15240062), 10 μg/mL blasticidin (Gibco, #A1113902), and 100 μg/mL Zeocin (Gibco, #R25005). The plated cells were cultured at 37° C., 5% CO2 for 24 hours, and then treated with 100 μL of the serially diluted compound in each well, and then cultured at 37° C., 5% CO2 for 24 hours. After culturing, 20 μL of the cell culture medium was transferred to a 96 well white plate, and QUANTI-Luc™ (InvivoGen #rep-qlcl) was added at 50 µL/well. Using a microplate reader (Perkin Elmer), the value of the luminescence signal increased in the experimental group treated with the drug compared to the control group not treated with the drug was calculated. EC50 values were derived according to the concentration of the compound using GraphPad Prism.

[4] = target: T2, hSTING-R232 (Homo sapiens, UniProt Q86WV6, H232R); test: STING agonist activity, THP1 Dual KI-hSTING-R232 IRF luciferase reporter cells; format: cell-based; conditions: 24 hours
T2 construct: host or cells: THP1 Dual KI-hSTING-R232 (STING HAQ gene removed, R232 variant gene introduced)
Experimental: as §1, §2

[5] = target: T3, hSTING-H232 (Homo sapiens, UniProt Q86WV6); test: STING agonist activity, THP1 Dual reporter cells with STING H232 variant; format: cell-based; conditions: IRF luciferase, 24 hours
T3 construct: host or cells: THP1 Dual KI-hSTING (STING HAQ gene removed, H232 variant gene introduced)
Experimental: as §1, §2

[6] = target: T4, human STING (Homo sapiens, UniProt Q86WV6); test: Direct binding potency, HUMAN STING WT BINDING KIT (Cisbio); conditions: in vitro
T4 construct: purchased Cisbio #64BDSTGPEG
Source text: Additionally, or analysis of direct binding potency of STING agonist compounds described herein to human STING, HUMAN STING WT BINDING KIT (Cisbio, #64BDSTGPEG) was used according to the manufacturer's instruction.

T2 sequence (Q86WV6 whole entry H232R): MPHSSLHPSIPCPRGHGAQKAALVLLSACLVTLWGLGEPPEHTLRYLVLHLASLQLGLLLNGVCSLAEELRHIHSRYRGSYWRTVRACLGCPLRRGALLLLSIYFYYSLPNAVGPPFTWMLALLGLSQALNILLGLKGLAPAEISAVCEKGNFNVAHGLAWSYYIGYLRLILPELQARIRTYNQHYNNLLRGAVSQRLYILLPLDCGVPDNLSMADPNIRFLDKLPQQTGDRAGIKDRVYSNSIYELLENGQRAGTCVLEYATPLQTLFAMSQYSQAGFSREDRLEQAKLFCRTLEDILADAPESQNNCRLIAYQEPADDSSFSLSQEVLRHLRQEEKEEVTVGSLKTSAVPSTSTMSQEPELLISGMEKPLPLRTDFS
T4 sequence (Q86WV6 whole entry): as the sequence (Q86WV6 whole entry H232R) above, with R232H counted along it
T3 sequence (Q86WV6 whole entry): as the sequence (Q86WV6 whole entry H232R) above, with R232H counted along it
T1 sequence (Q86WV6 whole entry R71H/G230A/H232R/R293Q): as the sequence (Q86WV6 whole entry H232R) above, with R71H, G230A, R293Q counted along it

Compound	EC50 [4] [nM]	other results
CCn1nc(C)cc1C(=O)Nc1nc2cc(C(N)=O)cc(OC)c2n1C/C=C/Cn1c(NC(=O)c2cc(C)nn2CC)nc2cc(C(N)=O)cc(OCCCN3CCOCC3)c21 [Comparative #1, reference compound]	–	AUC∞, norm ([1]; n = 3, plasma): 0.66 ± 0.07 kg·h/L; Cmax, norm ([1]; n = 3, plasma): 1.94 ± 0.30 kg/L; CC50 at 72 h [2]: 3.3 nM
CCc1nc(C)oc1C(=O)Nc1nc2cc(C(N)=O)cnc2n1C/C=C/Cn1c(NC(=O)c2oc(C)nc2CC)nc2cc(C(N)=O)cc(OCCCO)c21 [Comparative #2, reference compound]	3.39	EC50 [3]: 89.4 nM; AUC∞, norm ([1]; n = 3, plasma): 0.05 ± 0.01 kg·h/L; Cmax, norm ([1]; n = 3, plasma): 0.16 ± 0.02 kg/L; EC50 [5]: 9.5 nM
CCn1nc(C)cc1C(=O)Nc1nc2cc(C(N)=O)cc(OC)c2n1C/C=C/Cn1c(NC(=O)c2cc(C)nn2CC)nc2cc(C(N)=O)cc(OC/C=C/CN3CCOCC3)c21 [Compound 13]	0.54	–
CCn1nc(C)cc1C(=O)Nc1nc2cc(C(N)=O)cc(OC)c2n1C/C=C/Cn1c(NC(=O)c2cc(C)nn2CC)nc2cc(C(N)=O)cc(OC/C=C/CN3CCNCC3)c21 [Compound 23]	6.43	–
CCn1nc(C)cc1C(=O)Nc1nc2cc(C(N)=O)cc(OC)c2n1C/C=C/Cn1c(NC(=O)c2cc(C)nn2CC)nc2cc(C(N)=O)cc(OC/C=C\CN3CCOCC3)c21 [Compound 33]	0.93	–
CCn1nc(C)cc1C(=O)Nc1nc2cc(C(N)=O)cc(OC)c2n1C/C=C/Cn1c(NC(=O)c2cc(C)nn2CC)nc2cc(C(N)=O)cc(OC/C=C\CN3CCC(N)CC3)c21 [Compound 38]	10.3	–
CCn1nc(C)cc1C(=O)Nc1nc2cc(C(N)=O)cc(OC)c2n1C/C=C/Cn1c(NC(=O)c2cc(C)nn2CC)nc2cc(C(N)=O)cc(OC/C=C\CN3CCNCC3=O)c21 [Compound 43]	2.81	–
CCn1nc(C)cc1C(=O)Nc1nc2cc(C(N)=O)cc(OC)c2n1C/C=C/Cn1c(NC(=O)c2cc(C)nn2CC)nc2cc(C(N)=O)cc(OCC#CCN3CCOCC3)c21 [Compound 48]	0.69	–
CCn1nc(C)cc1C(=O)Nc1nc2cc(C(N)=O)cc(OC)c2n1C/C=C/Cn1c(NC(=O)c2cc(C)nn2CC)nc2cc(C(N)=O)cc(OC/C=C/CC3CCNCC3)c21 [Compound 89]	6.97	–
CCn1nc(C)cc1C(=O)Nc1nc2cc(C(N)=O)cc(OC)c2n1C/C=C/Cn1c(NC(=O)c2cc(C)nn2CC)nc2cc(C(N)=O)cc(OC/C=C/[C@@H]3CCCN3)c21 [Compound 120]	2.25	–
CCn1nc(C)cc1C(=O)Nc1nc2cc(C(N)=O)cc(OC)c2n1C/C=C/Cn1c(NC(=O)c2cc(C)nn2CC)nc2cc(C(N)=O)cc(OC/C=C/CN3CCCN3)c21 [Compound 133]	0.33	AUC(0-inf) ([1]; n = 3, plasma): 950 ± 110 ng·h/mL; AUC(0-t) ([1]; n = 3, plasma): 920 ± 110 ng·h/mL; C0 ([1]; n = 3, plasma): 4500 ± 850 ng/mL; Cmax ([1]; n = 3, plasma): 2650 ± 400 ng/mL; AUC∞, norm ([1]; n = 3, plasma): 0.63 ± 0.07 kg·h/L; Cmax, norm ([1]; n = 3, plasma): 1.76 ± 0.27 kg/L; clearance ([1]; plasma, n = 3): 26.5 mL/min/kg; half-life ([1]; plasma, n = 3): 1.61 ± 0.02 h; Vd ([1]; plasma, n = 3, read-out: VSS): 1.39 ± 0.21 L/kg; EC50 [6]: 0.43 nM
CCn1nc(C)cc1C(=O)Nc1nc2cc(C(N)=O)cc(OC)c2n1C/C=C/Cn1c(NC(=O)c2cc(C)nn2CC)nc2cc(C(N)=O)cc(OC/C=C/CNC(=O)N3CCNCC3)c21 [Compound 147]	4.03	–
CCn1nc(C)cc1C(=O)Nc1nc2cc(C(N)=O)cc(OC)c2n1C/C=C/Cn1c(NC(=O)c2cc(C)nn2CC)nc2cc(C(N)=O)cc(OC/C=C/COC(=O)N(C)CCNC)c21 [Compound 221]	3.48	–

Further lines, with some results ahead:

EC50 [4] [nM]	Compound	other results
0.85	CCn1nc(C)cc1C(=O)Nc1nc2cc(C(N)=O)cc(O)c2n1C/C=C/Cn1c(NC(=O)c2cc(C)nn2CC)nc2cc(C(N)=O)cc(OC/C=C/Cn3cc(N)cn3)c21 [Compound 69]	–
1.75	CCn1nc(C)cc1C(=O)Nc1nc2cc(C(N)=O)cc(OC)c2n1C/C=C/Cn1c(NC(=O)c2cc(C)nn2CC)nc2cc(C(N)=O)cc(OC/C=C/COc3cccc(N)c3)c21 [Compound 95]	–
1.36	CCn1nc(C)cc1C(=O)Nc1nc2cc(C(N)=O)cc(OC)c2n1C/C=C/Cn1c(NC(=O)c2cc(C)nn2CC)nc2cc(C(N)=O)cc(OC/C=C/Cn3ncc(CN)n3)c21 [Compound 110]	–
0.47	CCn1nc(C)cc1C(=O)Nc1nc2cc(C(N)=O)cc(OC)c2n1C/C=C/Cn1c(NC(=O)c2cc(C)nn2CC)nc2cc(C(N)=O)cc(OC/C=C/Cn3ncc4cc(N)ccc43)c21 [Compound 127]	–
2.25	CCn1nc(C)cc1C(=O)Nc1nc2cc(C(N)=O)cc(OC)c2n1C/C=C/Cn1c(NC(=O)c2cc(C)nn2CC)nc2cc(C(N)=O)cc(OC/C=C/Cn3cc(CN)nn3)c21 [Compound 139]	–
2.23	CCn1nc(C)cc1C(=O)Nc1nc2cc(C(N)=O)cc(OC)c2n1C/C=C/Cn1c(NC(=O)c2cc(C)nn2CC)nc2cc(C(N)=O)cc(OC/C=C/CN)c21 [Compound 145]	–
2.21	CCc1nc(C)oc1C(=O)Nc1nc2cc(C(N)=O)cc(OC/C=C/Cn3cc(N)cn3)c2n1C/C=C/Cn1c(NC(=O)c2cc(C)nn2CC)nc2cc(C(N)=O)cc(OC)c21 [Compound 151]	EC50 [6]: 0.13 nM
2.6	CCc1nc(C)sc1C(=O)Nc1nc2cc(C(N)=O)cc(OC/C=C/Cn3cc(N)cn3)c2n1C/C=C/Cn1c(NC(=O)c2cc(C)nn2CC)nc2cc(C(N)=O)cc(OC)c21 [Compound 155]	EC50 [6]: 0.4 nM
0.96	CCn1nc(C)cc1C(=O)Nc1nc2cc(C(N)=O)cc(OC)c2n1C/C=C/Cn1c(NC(=O)c2cc(C)nn2CC)nc2cc(C(N)=O)cc(OC/C=C/Cn3cc(N)c(C(=O)OC)n3)c21 [Compound 163]	–
1.04	CCn1nc(C)cc1C(=O)Nc1nc2cc(C(N)=O)cc(OC)c2n1C/C=C/Cn1c(NC(=O)c2cc(C)nn2CC)nc2cc(C(N)=O)cc(OC/C=C/Cn3cc(N)c(C(=O)O)n3)c21 [Compound 164]	–
1.17	CCn1nc(C)cc1C(=O)Nc1nc2cc(C(N)=O)cc(OC)c2n1C/C=C/Cn1c(NC(=O)c2cc(C)nn2CC)nc2cc(C(N)=O)cc(OC/C=C/CNC(=N)N)c21 [Compound 166]	–
3.96	CCn1nc(C)cc1C(=O)Nc1nc2cc(C(N)=O)cc(OC)c2n1C/C=C/Cn1c(NC(=O)c2cc(C)nn2CC)nc2cc(C(N)=O)cc(OC/C=C/Cn3cc(NCCC(=O)O)cn3)c21 [Compound 175]	–
0.7	CCn1nc(C)cc1C(=O)Nc1nc2cc(C(N)=O)cc(OC)c2n1C/C=C/Cn1c(NC(=O)c2cc(C)nn2CC)nc2cc(C(N)=O)cc(OCC#CCn3cc(N)cn3)c21 [Compound 178]	–
4.13	CCn1nc(C)cc1C(=O)Nc1nc2cc(C(N)=O)cc(OC)c2n1C/C=C/Cn1c(NC(=O)c2cc(C)nn2CC)nc2cc(C(N)=O)cc(OCCCS(C)(=N)=O)c21 (centres unmarked) [Compound 187]	–
8.13	CCn1nc(C)cc1C(=O)Nc1nc2cc(C(N)=O)cc(OC/C=C/Cn3cc(N)cn3)c2n1C/C=C/Cn1c(NC(=O)c2cc(C)nn2CC)nc2cc(C(N)=O)cc(OCCCS(C)(=N)=O)c21 (centres unmarked) [Compound 197]	–
2.72	CCc1nc(C)oc1C(=O)Nc1nc2cc(C(N)=O)cc(OC/C=C/Cn3cc(N)cn3)c2n1C/C=C/Cn1c(NC(=O)c2cc(C)nn2CC)nc2cc(C(N)=O)cc(OC)c21 [Compound 222]	–
